# From US20240254119A1 (THIRD HARMONIC BIO, INC., priority 2022, published 2024)
# pIC50: −log10 of the molar value.
# Molecular target: T1, wtKIT (Homo sapiens, UniProt P10721)
# T1 construct: 1888289AM in the reaction mixtures
# Test: Caliper biochemical assay, wtKIT
# Conditions: Table 6, read-out: KIT Biochemical IC50 avg
# Method: Enzyme, substrate, and cofactors (ATP and Mn^2+) are combined in a well of a microtiter plate and incubated for 3 hours at 25° C. At the end of the incubation, the reaction is quenched by the addition of an EDTA-containing buffer. Substrate and product are separated electrophoretically using the microfluidic-based LabChip 3000 Drug Discovery System from Caliper Life Sciences* and quantitated by fluorescence intensity.
# The substrate used in the CSF-1R and PDGFRα assay is FAM-[…]-CONH2 (FAM is carboxyfluorescein). Peptide should be >95% purity. The substrate for the KIT assay is FAM-[…]-NH2.
# • 1. To a well of a 384-well plate add 5 μL of 2× enzyme buffer (or control) • 2. Add 100 nL of 100× compound. • 3. Add 5 μL of 2× substrate buffer. • 4. Incubate plate at 25° C. for 3 hours. • 5. Add 10 uL of […]. • 6. Read plate LabChip 3000 Drug Discovery System
# • 3 hours at 25° C. where 100% Inhibitor: No enzyme.
# • 100 mM HEPES, pH 7.5 0.1% BSA • 0.01% Triton X-100 • 1 mM DTT • 10 mM MnCl2 • 10 μM Sodium Orthovanadate • 10 μM Beta-Glycerophosphate • 400 μM ATP • 1% DMSO (from compound) • 1 μM FAM-[…]-CONH2 5.0 nM wtKIT Enzyme (1888289AM)* • *Specific activity may vary from lot to lot. Enzyme concentration may need to be adjusted to yield 10-20% conversion of substrate to product.
# T1 sequence (P10721 26-976): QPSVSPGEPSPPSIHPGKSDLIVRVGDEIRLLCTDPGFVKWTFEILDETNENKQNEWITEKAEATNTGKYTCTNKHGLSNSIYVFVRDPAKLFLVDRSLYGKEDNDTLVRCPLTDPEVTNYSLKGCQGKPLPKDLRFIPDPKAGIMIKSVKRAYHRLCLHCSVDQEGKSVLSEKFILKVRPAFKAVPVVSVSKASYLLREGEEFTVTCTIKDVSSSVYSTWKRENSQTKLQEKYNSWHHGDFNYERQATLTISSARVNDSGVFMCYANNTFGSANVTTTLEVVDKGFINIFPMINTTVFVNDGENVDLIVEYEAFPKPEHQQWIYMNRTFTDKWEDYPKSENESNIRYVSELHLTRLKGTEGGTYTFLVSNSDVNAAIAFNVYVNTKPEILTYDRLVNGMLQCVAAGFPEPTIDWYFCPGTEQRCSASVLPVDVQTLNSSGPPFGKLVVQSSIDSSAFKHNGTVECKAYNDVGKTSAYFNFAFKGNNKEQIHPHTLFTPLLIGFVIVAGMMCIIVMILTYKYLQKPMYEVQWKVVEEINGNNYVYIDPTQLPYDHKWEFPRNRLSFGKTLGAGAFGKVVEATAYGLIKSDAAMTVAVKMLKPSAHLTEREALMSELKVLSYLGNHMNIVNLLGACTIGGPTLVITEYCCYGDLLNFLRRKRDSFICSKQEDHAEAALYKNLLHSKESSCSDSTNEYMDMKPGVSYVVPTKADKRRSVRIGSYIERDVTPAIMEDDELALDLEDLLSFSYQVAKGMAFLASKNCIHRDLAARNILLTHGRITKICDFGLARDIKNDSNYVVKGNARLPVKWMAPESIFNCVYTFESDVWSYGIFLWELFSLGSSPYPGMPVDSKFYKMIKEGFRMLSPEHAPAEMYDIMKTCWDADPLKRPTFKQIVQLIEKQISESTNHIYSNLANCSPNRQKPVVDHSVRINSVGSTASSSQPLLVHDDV
row,pIC50,SMILES
1,6.30 to 7.30,Cc1ccc(-c2noc([C@H]3C[C@@H]3F)n2)cc1NC(=O)c1cnc2ccc(Cl)nn12 [Compound I-289]
2,≥ 7.30,Cc1ccc(-c2noc([C@H]3C[C@@H]3F)n2)cc1NC(=O)c1cnc2ccc(Nc3ccc4c(c3)OCCO4)cn12 [Compound I-290]
3,≥ 7.30,Cc1cc(C)cc(Nc2ccn3c(C(=O)Nc4cc(-c5noc([C@H]6C[C@@H]6F)n5)ccc4C)cnc3c2)c1 [Compound I-292]
4,≥ 7.30,Cc1ccc(-c2noc([C@H]3C[C@@H]3F)n2)cc1NC(=O)c1cnc2cc(N3CCC(C)CC3)ccn12 [Compound I-303]
5,≥ 7.30,Cc1ccc(-c2noc(C3C(C)CC3C)n2)cc1NC(=O)c1cnc2ccccn12 (stereo not drawn) [Compound I-315]
6,≥ 7.30,CC(C)(C)OC(=O)N1CC(c2nc(-c3ccc(Cl)c(NC(=O)c4cnc5ccccn45)c3)no2)C1 [Compound I-333]

# Molecular target: T2, BCRP (BCRP-MDCKII monolayer) (Homo sapiens, UniProt Q9UNQ0)
# T2 construct: host or cells: MDCKII (canine kidney) cells
# T2 sequence (Q9UNQ0 1-655): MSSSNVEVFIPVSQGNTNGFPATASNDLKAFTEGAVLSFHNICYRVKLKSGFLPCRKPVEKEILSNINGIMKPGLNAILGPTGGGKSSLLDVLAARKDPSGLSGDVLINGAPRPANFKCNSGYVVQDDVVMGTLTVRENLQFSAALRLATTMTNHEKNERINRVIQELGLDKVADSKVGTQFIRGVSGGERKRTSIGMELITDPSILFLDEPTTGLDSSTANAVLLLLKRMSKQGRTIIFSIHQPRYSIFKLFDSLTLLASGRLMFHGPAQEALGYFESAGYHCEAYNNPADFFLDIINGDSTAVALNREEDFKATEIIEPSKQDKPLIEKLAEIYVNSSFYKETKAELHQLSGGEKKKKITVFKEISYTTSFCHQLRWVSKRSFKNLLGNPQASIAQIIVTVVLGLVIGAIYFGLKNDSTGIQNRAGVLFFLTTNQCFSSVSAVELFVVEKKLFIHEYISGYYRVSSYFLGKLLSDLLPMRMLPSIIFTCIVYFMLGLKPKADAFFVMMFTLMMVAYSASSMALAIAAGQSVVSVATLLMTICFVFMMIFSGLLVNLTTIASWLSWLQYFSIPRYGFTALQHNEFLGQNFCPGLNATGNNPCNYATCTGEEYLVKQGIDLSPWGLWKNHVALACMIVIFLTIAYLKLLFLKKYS
# Test: MDCKII-BCRP bidirectional transport assay
# Assay type: in vitro ADME
# Conditions: not given
# Method: Exemplary compounds were tested for cell permeability in Caco-2, MDCKII-MDR1 and MDCKII-BCRP cell lines with efflux transporter engagement inferred from the efflux ratios determined. Procedures and results are described below. […] This feature of certain compounds is in part due to efflux transporter engagement. See, for instance, exemplary such compounds included in data tables below.
# The reference compound Teriflunomide and test compounds are tested in the bidirectional assay. Test compound and reference compounds incubations were tested in duplicates.
# The transport assay can be performed between days 12 to day 15 using ready to use PreadyPort™ BCRP-MDCKII monolayer in 96 well plate.
# The medium was aspirated from the apical and basal compartments and 75 and 235 μL assay buffer was added to each of the 96 wells of apical and basal compartments of the PreadyPort™ plate.
# The plates were pre-incubated for 15 min at 37° C. with 5% CO2 in humidified atmosphere. After preincubation the assay buffer was removed from the apical and basal inserts of the plate.
# In apical to basolateral (A→B) transport, 75 μL of test or reference compound working solution to apical inserts and 235 μL of blank assay buffer were added to the corresponding basal compartments.
# In basolateral to apical transport, 235 μL of test or reference compound working solution to the basal compartments and 75 μL of blank assay buffer solution were added to corresponding apical inserts.
# The sandwich plate was incubated for 120 min in incubator at 5% CO2 and 37° C.
# After incubation, 60 μL was transferred from receiver and donor compartments to collection plate.
# For donor and C0 samples 20-fold dilution was accomplished by mixing 60 μL of collected sample with 1140 μL of transport buffer and from that solution aliquot 60 μL transfer Both receiver and donor samples were processed by adding […] of acetonitrile containing internal standard (60 μL of sample+240 μL of acetonitrile containing glyburide as internal standard, 125 ng/mL) and vortexing the samples. The compound concentration was measured in all samples using respective calibration standards by LC-MS/MS.
# Calculate the Papp and recovery using the given formula:
# [formula] [formula] • Where: dQ/dt=Permeability rate in μM/see • C0=Initial concentration in μM • A=Membrane surface area (0.33 cm^2) • V=Volume of receiver chamber • Cend, a=concentration in acceptor well at end of incubation • Cend, d=concentration in donor well at end of incubation • CHBSS=loading concentration measured in HBSS
row,SMILES,MDCK-BCRP: Efflux Ratio
1,Cc1ccc(-c2noc(C3CCC3F)n2)cc1NC(=O)c1cnc2ccccn12 (stereo not drawn) [Compound I-400],1.44

# Same assay, conditions: apical to basolateral
row,SMILES,MDCK-BCRP: Papp A-B
1,Cc1ccc(-c2noc(C3CCC3F)n2)cc1NC(=O)c1cnc2ccccn12 (stereo not drawn) [Compound I-400],11.7 10^−6 cm/s

# Tested on: not listed separately
# Test: Kinetic solubility assay
# Assay type: physicochemical
# Conditions: kinetic solubility, 50 mM PB (pH 7.4), shaken 24 hours at RT
# Method: 10 μL of 10 mM in DMSO of test article and control compounds was added into lower chambers of whatman miniuniprep vials, respectively. 490 μL of 50 mM PB (pH 7.4) was then added into lower chambers of the whatman miniuniprep vials, respectively. […] Miniuniprep vials were shaken for 24 hours at RT at the speed of 800 rpm, centrifuged 20 minutes (eg. 4000 rpm) and the filtrates were analyzed by UPLC-UV/HPLC-UV system to calculate the concentration with standard curve.
# Filter Membrane: Miniuniprep (PTFE Filter Media with Polypropylene Housing) Cat. No. UN203NPUORG, GE Halthcare Whatman.
row,SMILES,Solubility (μM)
1,Cc1ccc(-c2noc([C@H]3C[C@@H]3F)n2)cc1NC(=O)c1cnc2ccc(Cl)nn12 [Compound I-289],*** (a solubility greater than 2 μM and less than or equal to 10 μM)
2,Cc1ccc(-c2noc([C@H]3C[C@@H]3F)n2)cc1NC(=O)c1cnc2ccc(Nc3ccc4c(c3)OCCO4)cn12 [Compound I-290],*** (a solubility greater than 2 μM and less than or equal to 10 μM)
3,Cc1cc(C)cc(Nc2ccn3c(C(=O)Nc4cc(-c5noc([C@H]6C[C@@H]6F)n5)ccc4C)cnc3c2)c1 [Compound I-292],*** (a solubility greater than 2 μM and less than or equal to 10 μM)
4,Cc1ccc(-c2noc([C@H]3C[C@@H]3F)n2)cc1NC(=O)c1cnc2cc(N3CCC(C)CC3)ccn12 [Compound I-303],**** (a solubility less than or equal to 2 μM)
5,Cc1ccc(-c2noc(C3C(C)CC3C)n2)cc1NC(=O)c1cnc2ccccn12 (stereo not drawn) [Compound I-315],**** (a solubility less than or equal to 2 μM)
6,CC(C)(C)OC(=O)N1CC(c2nc(-c3ccc(Cl)c(NC(=O)c4cnc5ccccn45)c3)no2)C1 [Compound I-333],**** (a solubility less than or equal to 2 μM)
7,Cc1ccc(-c2noc(C3CCC3F)n2)cc1NC(=O)c1cnc2ccccn12 (stereo not drawn) [Compound I-400],**** (a solubility less than or equal to 2 μM)
8,Cc1ccc(-c2noc(C3CC3(F)F)n2)cc1NC(=O)c1cnc2cc(COCCO)ccn12 (stereo not drawn) [I-58],** (a solubility greater than 10 μM and less than or equal to 50 μM)
9,Cc1ccc(-c2noc(C3CC3F)n2)cc1NC(=O)c1cnc2cc(COC(C)CO)ccn12 (stereo not drawn) [I-59],* (a solubility greater than 50 μM)
10,Cc1ccc(-c2noc(C3CC3F)n2)cc1NC(=O)c1cnn2cccc(C(F)F)c12 (stereo not drawn) [I-60],**** (a solubility less than or equal to 2 μM)
11,Cc1ccc(-c2noc(C3CC3F)n2)cc1NC(=O)c1cnc2cc(COC(C)(C)CO)ccn12 (stereo not drawn) [I-64],** (a solubility greater than 10 μM and less than or equal to 50 μM)
12,O=C(Nc1cc(-c2noc(C3CC3(F)F)n2)ccc1Cl)c1cnc2ccccn12 (stereo not drawn) [I-74],**** (a solubility less than or equal to 2 μM)
13,Cc1ccc(-c2noc([C@H]3CC4(CC4)CN3)n2)cc1NC(=O)c1cnc2ccccn12 [I-231],** (a solubility greater than 10 μM and less than or equal to 50 μM)
